In publication PMC11355249, “In Silico Identification and Molecular Mechanism of Novel Tyrosinase Inhibitory Peptides Derived from Nacre of Pinctada martensii” (Marine Drugs, 2024):
Where two headings read alike, the source gives them in different places. Peptide text beside a SMILES is read from it.

Columns and labels:
[1] = molecular target: T1, tyrosinase (from Mushroom) (Agaricus bisporus, UniProt C7FF04); format: biochemical; conditions: read-out: IC50 (mM), tyrosinase activity
Description: (§1) We followed the method of Yu, with a slight modification. L-tyrosine solution (0.5 mg/mL), sample solution, and PBS buffer were sequentially added into the 96-well plate, thoroughly mixed, and then incubated at 37 °C for 10 min, then 20 μL of tyrosinase solution (500 U/mL) was added into each well, followed by immediate placement into the enzyme marker after the reaction at 37 °C for (10 min ± 5 s). The results were analyzed at 475 nm. DPPH and ABTS free-radical-scavenging capacity assays were conducted using kits from Grace Biotechnology Co., Ltd. (Jiangsu, China).

B16F10 cells [2] = experiment: Cell viability, CCK-8 assay; format: cell-based, mouse; conditions: 15–1200 μM, 48 h
Description: The B16F10 cells were obtained from FengHui Biotechnology Co., Ltd. (Hunan, China). B16F10 cell cultures from generations 10–25 were grown in medium (DMEM supplemented with 10% fetal bovine serum, 1% antibiotic–antifungal solution) in a 5% CO2 incubator at 37 °C.
Cell viability was assessed using the Cell Counting Kit-8 (CCK-8) assay. During the logarithmic growth phase, 100 µL of cell suspension was dispensed into 96-well plates, with 3000 cells per well, and the supernatant was removed after incubation at 37 °C for 24 h. Wells containing 100 µL of medium served as blank controls. Determination of viability after 48 h of sample treatment.

[3] = molecular target: T1, tyrosinase (from Mushroom); experiment: Inhibition kinetics, Lineweaver-Burk double inverse plot and secondary plots; format: biochemical; conditions: read-out: inhibition constant on the free enzyme, Ki; substrate L-tyrosine; peptide 0, 0.3, 0.6, 1.2 mM
Source text: Based on the observation that the inhibition of tyrosinase by the synthetic peptide AHYYD was reversible, the type of inhibition was further elucidated by constructing a Lineweaver–Burk double inverse plot of the enzymatic reaction rate against the concentration of the substrate (L-tyrosine). In this plot, the intercept with the Y-axis represents 1/Vmax, while the intercept with the X-axis represents −1/Km. […] The slope of the line increased with the rise in synthetic peptide concentration, indicating a mixed type of inhibition. By using the quadratic plotting method, the slopes of the four straight lines in the Lineweaver–Burk double inverse plot were plotted against the synthetic peptide concentration.
Keeping the L-tyrosine concentration constant at 0.5 mg/mL, the concentrations of the synthetic peptide and tyrosinase were varied. The change in the OD475 absorbance value was continuously monitored at 37 °C after mixing. The enzyme concentration is plotted on the horizontal axis, while the rate of absorbance change is plotted on the vertical axis. Under the conditions of varying the peptide concentration and substrate concentration while keeping the tyrosinase solution constant, the reciprocal of the substrate concentration was plotted on the horizontal axis, and the reciprocal of the rate of absorbance change was plotted on the vertical ax.

B16F10 cells [4] = experiment: Antioxidant enzyme activity (CAT, GSH-Px, SOD) by kit; format: cell-based, mouse; conditions: B16F10, positive control 350 μM
Description: (§2) The cell culture and treatment methods were the same as those described in Section 3.12. The activities of catalase (CAT), glutathione peroxidase (GSH-Px), and superoxide dismutase (SOD) were determined using the assay kit from Nanjing Jianjian Bioengineering Research Institute (Nanjing, China). The ROS content was determined using the method provided by Biyuntian Bio-Technology Company Limited (Shanghai, China).

[5] = system: tyrosinase activity in B16F10 cells; experiment: Intracellular tyrosinase activity (L-DOPA, 475 nm); format: cell-based, mouse; conditions: B16F10, Kojic acid 350 μM, 48 h
Description: The cells in the logarithmic growth phase were seeded at a density of 2 × 10^5 cells per well in 6-well plates. After 24 h of culture, the supernatant was removed. […] After 48 h of incubation, the cells were lysed, and the cell lysates were centrifuged at 12,000 rpm for 10 min. The reaction mixture consisted of 50 µL of cell lysate supernatant, 50 µL of 1 mg/mL L-DOPA, and 50 µL of PBS buffer. The mixture was incubated at 37 °C for 1 h. The […] formation level was then measured spectrophotometrically at 475 nm. Tyrosinase activity was expressed as a percentage of the blank control.

[6] = system: melanin content of B16F10 cells; experiment: Melanin content determination; format: cell-based, mouse; conditions: B16F10, Kojic acid 350 μM, 48 h
Description: The cell culture stage for melanin content determination was as follows: the cells were washed twice with PBS buffer after 48 h of peptide treatment. Trypsin digestion was performed, and the cells were collected. The […] was removed by centrifugation for 5 min and the precipitate was lysed by dissolving it in 1 mol/L NaOH containing 10% DMSO for 1 h at 80 °C. Subsequently, the cell lysate was centrifuged at 12,000 rpm for 10 min. A total of 200 µL of the supernatant was transferred to a 96-well plate, and the absorbance was measured at 405 nm. The melanin content was then expressed as a percentage of the control group.

[7] = ABTS free-radical-scavenging capacity assay (kit); conditions: synthetic peptides
Description: as §1

B16F10 cells [8] = experiment: Intracellular ROS content; format: cell-based, mouse; conditions: B16F10, 75 μM
Description: as §2

T1 sequence (C7FF04 1-392): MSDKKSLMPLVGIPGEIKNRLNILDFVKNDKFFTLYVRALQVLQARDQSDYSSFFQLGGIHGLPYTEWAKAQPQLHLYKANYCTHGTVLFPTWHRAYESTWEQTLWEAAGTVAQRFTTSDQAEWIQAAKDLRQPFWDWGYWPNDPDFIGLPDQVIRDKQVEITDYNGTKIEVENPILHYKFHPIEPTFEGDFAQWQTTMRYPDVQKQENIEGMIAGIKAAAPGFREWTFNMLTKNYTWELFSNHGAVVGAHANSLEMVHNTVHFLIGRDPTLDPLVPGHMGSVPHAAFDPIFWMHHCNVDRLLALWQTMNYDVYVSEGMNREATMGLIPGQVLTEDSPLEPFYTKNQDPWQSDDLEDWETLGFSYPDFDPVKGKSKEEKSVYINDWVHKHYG

For `C[C@H](N)C(=O)N[C@@H](Cc1c[nH]cn1)C(=O)N[C@@H](Cc1ccc(O)cc1)C(=O)N[C@@H](Cc1ccc(O)cc1)C(=O)N[C@@H](CC(=O)O)C(=O)O` [AHYYD, Ala-His-Tyr-Tyr-Asp] (H-AHYYD-OH), which IC50 [1] is on record?
Its IC50 is 2.01 ± 0.088 mM.

And the “viability of B16F10 cells compared to the control group” value (B16F10 cells [2])?
Its value is “no significant difference”.

What about the Ki [3] of the same compound?
The Ki was 601 µM.

For `CC[C@H](C)[C@H](NC(=O)[C@@H]1CCCN1C(=O)[C@@H](N)CCCCN)C(=O)N[C@@H](Cc1c[nH]c2ccccc12)C(=O)N[C@H](C(=O)O)[C@@H](C)O` [KPIWT, Lys-Pro-Ile-Trp-Thr] (H-KPIWT-OH; N-terminus and C-terminus assumed), which IC50 ([1]; synthetic peptides, Kojic acid positive control) is on record?
Its IC50 is greater than 10 mM.

With `O=c1cc(CO)occ1O` [Kojic acid] as the compound, how does the “increase of GSH-Px activity” value (B16F10 cells [4]) read?
The value was 52.85%.

And the “increase of SOD activity” value (B16F10 cells [4])?
The value was 68.92%.

And the “reduction of intracellular tyrosinase activity” value [5]?
Its value is 19.51%.

What about the “reduction of intracellular melanin content” value [6] of the same compound?
Its value is 18.54%.

With `C[C@@H](O)[C@H](N)C(=O)N[C@@H](Cc1ccccc1)C(=O)N[C@@H](CO)C(=O)NCC(=O)N[C@@H](CC(N)=O)C(=O)N[C@@H](Cc1ccc(O)cc1)C(=O)N1CCC[C@H]1C(=O)O` [TFSGNYP, Thr-Phe-Ser-Gly-Asn-Tyr-Pro] (H-TFSGNYP-OH) as the compound, how does the “IC50 for ABTS clearance” value [7] read?
Its value is 278.5 µg/mL.

What about the IC50 [1] of the same compound?
The IC50 was greater than 5 mM.

Which “intracellular ROS levels, % of the untreated group” value (B16F10 cells [8]) does the source give for `CC1=C(/C=C/C(C)=C/C=C/C(C)=C/C(=O)O)C(C)(C)CCC1` [tretinoin] here?
The value was 65.44%.
